In experiment [1] the test system is SARS-CoV-2. Briefly: microbe, parasite or virus in culture. The note with it: Severe acute respiratory syndrome coronavirus 2, Delta, Vero C1008.
Experiment [2] has as its system SARS-CoV-2. Briefly: microbe, parasite or virus in culture. The note with it: Severe acute respiratory syndrome coronavirus 2, Delta, Vero C1008. This is another data set of the same source.
The test system of experiment [3] is SARS-CoV-2. The experiment can be described thus: Antiviral activity against SARS-CoV-2 omicron BA.5 variant infected in K18-hACE2 transgenic mouse model assessed as increase in body weight at 200 mg/kg, po pre-infected with virus for 2 hrs followed by twice daily compound administration and measured on day 4 in presence of ritonavir. The experiment is classed as functional, organism-based. The note with it: Severe acute respiratory syndrome coronavirus 2, time 4.0 day.

Experiment [4] relates to SARS-CoV-2. Briefly: Antiviral activity against SARS-CoV-2 omicron BA.5 variant infected in K18-hACE2 transgenic mouse model assessed as increase in body weight at 50 mg/kg, po pre-infected with virus for 2 hrs followed by twice daily compound administration and measured on day 4 in presence of nirmatrelvir. It counts as functional, organism-based. The note with it: Severe acute respiratory syndrome coronavirus 2, time 4.0 day.

The subject of experiment [5] is SARS-CoV-2. The experiment can be described thus: Antiviral activity against SARS-CoV-2 omicron BA.5 variant infected in K18-hACE2 transgenic mouse model assessed as increase in body weight at 100 to 200 mg/kg, po pre-infected with virus for 2 hrs followed by twice daily compound administration and measured on day 4. It counts as functional, organism-based. The following applies: Severe acute respiratory syndrome coronavirus 2, dose 100-200 mg/kg, time 4.0 day.

The test system of experiment [6] is SARS-CoV-2. The experiment can be described thus: Antiviral activity against SARS-CoV-2 omicron BA.5 variant infected in K18-hACE2 transgenic mouse model assessed as log reduction in viral copies in lungs at 200 mg/kg, po pre-infected with virus for 2 hrs followed by twice daily compound administration and measured on day 2. It counts as functional, Severe acute respiratory syndrome coronavirus 2. The following applies: time 2 day.

Experiment [7] deals with SARS-CoV-2. Briefly: Antiviral activity against SARS-CoV-2 omicron BA.5 variant infected in K18-hACE2 transgenic mouse model assessed as log reduction in viral copies in lungs at 200 mg/kg, po pre-infected with virus for 2 hrs followed by twice daily compound administration and measured on day 4. It counts as functional, Severe acute respiratory syndrome coronavirus 2. The following applies: time 4 day.

Experiment [8] has as its system SARS-CoV-2. Briefly: Antiviral activity against SARS-CoV-2 omicron BA.5 variant infected in K18-hACE2 transgenic mouse model assessed as inhibition of viral replication at 100 mg/kg, po pre-infected with virus for 2 hrs followed by twice daily compound administration and measured on day 2 to 4. It counts as functional, organism-based. The note with it: Severe acute respiratory syndrome coronavirus 2, time 2-4 day.

Consider 14 molecules from ChEMBL document CHEMBL5523769, “Discovery of Novel Nonpeptidic and Noncovalent Small Molecule 3CLpro Inhibitors as anti-SARS-CoV-2 Drug Candidate” (J Med Chem, 2024).

pEC50: −log10 of the molar value. Activity calls are given as the source filed them. The calls are words filed in the database; no cut-off is given here.

A word on the pEC50: it is the EC50 on a negative log10 scale, so that one unit is a factor of ten. Higher therefore signals a small EC50. With `O=C(NCCC(F)(F)F)C1CN(c2ccc(Cl)c(Cl)c2)CCN1C(=O)c1cc(=O)[nH]c2ccccc12` (centres undefined), the pEC50 in the experiment with SARS-CoV-2 [1] is 4.75.

`CNC(=O)c1cc(C2CC2)cc([N+](=O)[O-])c1N[C@@H]1CCCC[C@@H]1NC(=O)c1cc(=O)[nH]c2ccccc12` gave a pEC50 with SARS-CoV-2 [1] of 5.57.

In the case of `O=C(c1cc(=O)[nH]c2ccccc12)N1CCN(c2ccc(Cl)c(Cl)c2)CC1CN1CCOCC1` (centres undefined), the pEC50 in the experiment on SARS-CoV-2 [2] and in the experiment on SARS-CoV-2 [1] was 5.14 throughout.

In the case of `O=C(N[C@H]1CCCC[C@H]1Nc1c(C(=O)N2CCOCC2)cc(C2CC2)cc1[N+](=O)[O-])c1cc(=O)[nH]c2ccccc12`, the pEC50 in the experiment with SARS-CoV-2 [1] is 5.35.

In turn, `CNC(=O)c1cc(Br)cc([N+](=O)[O-])c1N[C@@H]1CCCC[C@@H]1NC(=O)c1cc(=O)[nH]c2c(F)cccc12` gave a pEC50 with SARS-CoV-2 [1] of 6.46.

Take `CC(C)(C)[C@H](NC(=O)C(F)(F)F)C(=O)N1C[C@H]2[C@@H]([C@H]1C(=O)N[C@H](C#N)C[C@@H]1CCNC1=O)C2(C)C`: the outcome in the experiment on SARS-CoV-2 [3] was Active.

`CNC(=O)c1cc(Br)cc([N+](=O)[O-])c1N[C@@H]1CCCC[C@@H]1NC(=O)c1cc(=O)[nH]c2ccc(F)cc12` gave a negative logarithm of the EC50 (pEC50) with SARS-CoV-2 [1] of 5.61.

Molecule `O=C(N[C@H]1CCCC[C@H]1Nc1c(C(=O)N2CCOCC2)cc(Br)cc1[N+](=O)[O-])c1cc(=O)[nH]c2ccccc12` had a pEC50 in the experiment on SARS-CoV-2 [1] of 5.47.

With `CC(C)c1nc(CN(C)C(=O)N[C@H](C(=O)N[C@@H](Cc2ccccc2)C[C@H](O)[C@H](Cc2ccccc2)NC(=O)OCc2cncs2)C(C)C)cs1`, in the experiment with SARS-CoV-2 [4], the result was Active.

For the molecule `COc1ccc2[nH]c(=O)cc(C(=O)N[C@H]3CCCC[C@H]3Nc3c(C(=O)N4CCOCC4)cc(C4CC4)cc3[N+](=O)[O-])c2c1`, the pEC50 in the experiment with SARS-CoV-2 [1] is 5.11.

In the experiment on SARS-CoV-2 [1], `O=C(N[C@H]1CCCC[C@H]1Nc1c(C(=O)N2CCOCC2)cc(Br)cc1[N+](=O)[O-])c1cc(=O)[nH]c2c(F)cccc12` showed a pEC50 of 6.44.

Regarding `O=C(NCCCC(F)(F)F)C1CN(c2ccc(Cl)c(Cl)c2)CCN1C(=O)c1cc(=O)[nH]c2ccccc12` (centres undefined), the pEC50 in the experiment on SARS-CoV-2 [1] was 5.40.

As to `CNC(=O)c1cc(Br)cc([N+](=O)[O-])c1N[C@@H]1CCCC[C@@H]1NC(=O)c1cc(=O)[nH]c2ccccc12`, the pEC50 in the experiment on SARS-CoV-2 [1] is 6.07.

Turning to `CN1CCN(C(=O)c2cc(Br)cc([N+](=O)[O-])c2N[C@@H]2CCCC[C@@H]2NC(=O)c2cc(=O)[nH]c3c(F)cccc23)CC1`, the outcome in the experiment on SARS-CoV-2 [5] and in the experiment with SARS-CoV-2 [8] was Active. For the same molecule, the “log(activity)” value in the experiment on SARS-CoV-2 [6] was determined as 1.5; in the experiment on SARS-CoV-2 [7], 1. In the experiment with SARS-CoV-2 [1], this molecule showed a pEC50 of 6.57.
